Data taken from publication PMC5334708, “Mosquitocidal Activity and Mode of Action of the Isoxazoline Fluralaner” (International Journal of Environmental Research and Public …, 2017).

Legend:
[1] = biological target: T1, mammalian GABAA α1β3γ2 receptor (Homo sapiens, UniProt P14867+P18507+P28472); assay: whole-cell planar patch clamp, block of GABA EC80 current in transfected HEK293 cells; assay type: cell-based
T1 construct: gene GABRA1; with GABRB3 (β3) and GABRG2 (γ2) subunits

[2] = biological target: T1, mammalian GABAA α1β3γ2 receptor; assay: whole-cell planar patch clamp, block of GABA EC80 current in transfected HEK293 cells (antagonist positive control); assay type: cell-based

T1 sequence (P14867 28-456): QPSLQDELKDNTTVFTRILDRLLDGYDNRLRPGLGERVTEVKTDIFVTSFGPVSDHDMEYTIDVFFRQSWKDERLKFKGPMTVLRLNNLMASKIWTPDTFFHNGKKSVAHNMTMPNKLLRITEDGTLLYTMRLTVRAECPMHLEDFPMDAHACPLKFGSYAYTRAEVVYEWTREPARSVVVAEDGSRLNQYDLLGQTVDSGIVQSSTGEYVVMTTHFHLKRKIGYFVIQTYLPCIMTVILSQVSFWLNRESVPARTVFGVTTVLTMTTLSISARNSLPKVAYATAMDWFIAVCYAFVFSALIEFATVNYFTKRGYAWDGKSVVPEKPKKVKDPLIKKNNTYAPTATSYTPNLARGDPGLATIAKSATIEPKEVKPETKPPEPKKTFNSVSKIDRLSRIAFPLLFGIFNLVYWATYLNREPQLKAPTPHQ
T1 sequence (P28472 26-473): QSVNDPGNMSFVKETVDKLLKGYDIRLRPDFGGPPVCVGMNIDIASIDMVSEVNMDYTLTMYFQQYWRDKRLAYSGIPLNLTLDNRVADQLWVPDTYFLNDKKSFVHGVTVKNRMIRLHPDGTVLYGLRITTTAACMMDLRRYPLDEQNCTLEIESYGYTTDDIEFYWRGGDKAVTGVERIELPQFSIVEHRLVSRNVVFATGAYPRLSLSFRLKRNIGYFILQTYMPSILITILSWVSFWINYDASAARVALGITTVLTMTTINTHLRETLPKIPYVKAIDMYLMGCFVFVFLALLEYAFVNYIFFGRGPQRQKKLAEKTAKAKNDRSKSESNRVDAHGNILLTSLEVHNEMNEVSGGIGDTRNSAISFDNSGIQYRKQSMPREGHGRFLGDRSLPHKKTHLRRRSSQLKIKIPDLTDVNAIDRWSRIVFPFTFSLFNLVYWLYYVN
T1 sequence (P18507 40-475): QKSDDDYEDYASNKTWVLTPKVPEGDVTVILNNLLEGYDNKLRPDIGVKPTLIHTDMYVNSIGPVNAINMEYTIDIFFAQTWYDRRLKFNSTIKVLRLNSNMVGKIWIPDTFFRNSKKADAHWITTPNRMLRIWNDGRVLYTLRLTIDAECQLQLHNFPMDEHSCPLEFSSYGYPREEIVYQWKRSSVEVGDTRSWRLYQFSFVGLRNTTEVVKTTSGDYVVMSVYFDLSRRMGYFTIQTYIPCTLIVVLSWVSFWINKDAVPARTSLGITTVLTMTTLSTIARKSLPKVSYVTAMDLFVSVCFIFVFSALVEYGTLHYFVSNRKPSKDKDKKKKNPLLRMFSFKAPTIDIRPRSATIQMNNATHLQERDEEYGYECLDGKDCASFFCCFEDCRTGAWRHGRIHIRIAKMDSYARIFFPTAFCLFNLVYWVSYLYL

## N#Cc1nn(-c2c(Cl)cc(C(F)(F)F)cc2Cl)c(N)c1[S+]([O-])C(F)(F)F (centres unmarked) [fipronil]
[1]
  IC50: 4.9 µM

## C=C(C)[C@@H]1[C@H]2OC(=O)[C@@H]1[C@]1(O)C[C@H]3OC34C(=O)O[C@H]2[C@@]41C.CC(C)(O)[C@@H]1[C@H]2OC(=O)[C@@H]1[C@]1(O)C[C@H]3OC34C(=O)O[C@H]2[C@@]41C (some centres unmarked) [picrotoxin]
[2]
  IC50: 3.9 µM
